Laboratory results as given in patent US9005917B2, “Variable color two-photon fluorescent probe, method for imaging thiol activation in mitochondrion using same, and method for manufacturing the variable color two-photon fluorescent probe” (Ajou University Industry-Academic Cooperation Foundation, priority 2011, dated 2015).

Assays:
[1] = Measurement of photophysical properties in MOPS buffer; format: physicochemical; conditions: for λ(1)max, λmax of one-photon absorption spectra: MOPS buffer (30 mM MOPS, 100 mM KCl, pH 7.4); for Φδ, two-photon action cross section / λ(2)max, λmax of two-photon excitation spectra / λfl max, λmax of one-photon emission spectra / 10^−4 ε, molar extinction coefficient (in parentheses) / Φ, fluorescence quantum yield / δ, peak two-photon cross section per photon: MOPS buffer pH 7.4; for 10^−4 ε, molar extinction coefficient (in parentheses): printed as 10^−4 ε; for Φ, fluorescence quantum yield / δ, peak two-photon cross section per photon: ±15%
Protocol: (§1) Photophysical properties of the two-photon fluorescent probe (SSH-Mito) (Example 1) and the compound represented by Formula 6 were measured in MOPS buffer (30 mM MOPS, 100 mM KCl, pH 7.4).

[2] = Measurement of water solubility by fluorescence intensity versus concentration; format: physicochemical; conditions: 30 mM MOPS, 100 mM KCl, pH 7.4; 0.2% DMSO
Protocol: A small amount of the two-photon fluorescent probe (SSH-Mito) prepared in Example 1 was dissolved in DMSO to prepare a stock solution (1.0×10^−2 M). The solution was diluted to 6.0×10^−3 to 6.0×10^−5 M and added to a cuvette containing 3.0 mL of a buffer (30 mM MOPS, 100 mM KCl, pH 7.4) using a microsyringe. In all cases, the concentration of DMSO in water was maintained at 0.2%. […] The maximum concentration in the linear region is determined as the solubility of the two-photon fluorescent probe.

thiols in HeLa cells = assay: Ratiometric two-photon microscopy imaging of thiols in HeLa cells; format: cell-based
Protocol: The images were acquired using 740 nm excitation and fluorescence emission windows of 425-475 nm (blue) and 525-575 nm (yellow). Scale bar: 20 μm. The cells shown are representative images obtained from repeated experiments (n=5).
It was tested if the two-photon fluorescent probe of the present invention can monitor the change of thiols in a living cell.
When the cells were pre-incubated for 1 day with α-lipolic acid which increases GSH production (FIG. 6 (b)), the Fyellow/Fblue ratio increased to 2.64. And, when treated with N-ethylmaleimide (NEM), a well-known thiol blocking agent, the Fyellow/Fblue ratio decreased to 0.77 (FIG. 6 (c)).

[3] = tested on: thiols in rat hippocampal slices; assay: Ratiometric two-photon microscopy imaging of rat hippocampal slices
Protocol: (a, d) Bright-field images of the CA1 and CA3 regions. (b, e) Ratiometric TPM images of rat hippocampal slices that were (b) not treated and (e) pretreated with NEM (100 μM) for 30 minutes before labeling with SSH-Mito. Ten TPM images were accumulated along the z-axis direction at depths of about 90-190 μm (10×). (c, f) Enlarged (40×) images of the red boxes in (b) and (e) at a depth of 120 μm. The two-photon excited fluorescence (TPEF) was collected in two channels (blue=425-475 nm, yellow=525-575 nm) upon excitation at 740 nm with a femtosecond (fs) pulse. Scale bars: 300 μm (a, d) and 75 μm (c, f)).
In order to investigate the utility of two-photon fluorescent probe of the present invention in tissue imaging, rat hippocampal slices were monitored.
Since the structure of the brain tissue is known to be inhomogeneous throughout its entire depth, 10 TPM images were obtained at depths of 90-190 μm and they were combined to visualize the overall thiol distribution. […] When the tissue was treated with 100 μM NEM for 30 minutes, the ratio decreased to 0.85 (FIG. 8 (f)).

[4] = Thiol selectivity and pH dependence of fluorescence response in MOPS buffer
Protocol: White and black bars represent the relative fluorescence intensity (Fyellow/Fblue) of SSH-Mito (5 μM) in the presence of various analytes before and after addition of GSH, respectively. Each spectrum was acquired 2 hours after addition of various analytes at 37° C.
The excitation wavelength was 380 nm.
White and black bars represent the relative fluorescence intensity before and after addition of GSH, respectively.

HeLa cells = assay: Cytotoxicity, viability by CCK-8 kit; format: cell-based; conditions: incubated 2 hours
Protocol: The cells were incubated with SSH-Mito for 2 hours.

[5] = Emission ratio change (Rmax/Rmin) before and after addition of GSH; conditions: before and 2 hours after addition of 10 mM GSH
Protocol: as §1

Row | λ(1)max, λmax of one-photon absorption spectra [1] | Φδ, two-photon action cross section [1] | λ(2)max, λmax of two-photon excitation spectra [1] | λfl max, λmax of one-photon emission spectra [1] | 10^−4 ε, molar extinction coefficient (in parentheses) [1] | Φ, fluorescence quantum yield [1] | δ, peak two-photon cross section per photon [1] | solubility in the buffer [2] | SMILES | Fyellow/Fblue ratio (thiols in HeLa cells; HeLa cells pre-incubated for 1 day with α-lipolic acid) | Fyellow/Fblue ratio (thiols in HeLa cells; HeLa cells treated with N-ethylmaleimide (NEM)) | average emission ratio (Fyellow/Fblue) (thiols in HeLa cells; HeLa cells, TP excitation at 740 nm, no pretreatment) | average emission ratio ([3]; CA1 region, depth of 120 μm, not treated) | average emission ratio ([3]; tissue treated with 100 μM NEM for 30 minutes) | selectivity for GSH over other analytes ([4]; 5 μM probe, 10 mM analytes, 30 mM MOPS buffer pH 7.4) | fluorescence response toward compounds containing thiol groups ([4]; GSH, Cys, Hcy, DTT, 2-ME, 2-AET) | effect of pH on fluorescence ([4]; absence and presence of 10 mM GSH, MOPS buffer) | fluorescence response toward analytes without thiol groups ([4]; amino acids (Glu, Ser, Val, Met, Ala, Ile), metal ions (Na+, K+, Ca+, Mg2+, Zn2+) and H2O2) | viability of HeLa cells (cytotoxicity) (HeLa cells) | Rmax/Rmin, emission ratio (F525-575/F425-475) conversion factor, one-photon processes ([5]; one-photon) | Rmax/Rmin, emission ratio conversion factor, two-photon processes (in parentheses) ([5]; two-photon)
1 | 338 nm | 80 | 740 nm | 462 nm | 2.05 M^−1 cm^−1 | 0.82 | 95 GM | ~5.0 µM | CN(C(=O)OCCSSCCN)c1ccc2cc(-c3nc4ccc(C(=O)NCC[P+](c5ccccc5)(c5ccccc5)c5ccccc5)cc4s3)ccc2c1 [SSH-Mito] | 2.64 | 0.77 | 1.24 | 1.66 | 0.85 | high selectivity for GSH | strong responses | pH-insensitive at biologically relevant pH | negligible responses | adequate for detecting thiols in living cells | 45 | 40
2 | 383 nm | 55 | 750 nm | 545 nm | 1.50 M^−1 cm^−1 | 0.12 | 550 GM | – | CNc1ccc2cc(-c3nc4ccc(C(=O)NCC[P+](c5ccccc5)(c5ccccc5)c5ccccc5)cc4s3)ccc2c1.[Br-] [Compound No. 6] | – | – | – | – | – | – | – | – | – | – | – | –
